The values that follow come from patent US20120053165A1, “Novel Phenyl Imidazoles and Phenyl Triazoles As Gamma-Secretase Modulators” (Pfizer Inc., priority 2009, published 2012).

Where a name gives a salt, the structure may show the parent alone. Read-outs that look alike come from different tables or passages of the source.

The subject of this test is production of amyloid beta protein Aβ(1-42) in human WT-APP overexpressing CHO cells.
Where [1] appears, read: read-out: Aβ 42 IC50, Geometric mean of 2-8 determinations, human WT-APP overexpressing CHO cells.
Setting [2] is: Homo sapiens, CHO, read-out: Aβ 42 IC50, Geometric mean of 2-8 determinations, human WT-APP overexpressing CHO cells.
The mark [3] stands for this setting: Homo sapiens, CHO, read-out: Aβ 42 IC50.
Where [4] appears, read: Homo sapiens, CHO, read-out: GM Aβ 42B IC50, Geometric Mean of 2-8 Determinations, human WT-APP overexpressing CHO cells.
[5] abbreviates: Homo sapiens, CHO, read-out: Aβ 42 IC50, Geometric mean of at least 2 determinations, human WT-APP overexpressing CHO cells.
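Further: Aβ(1-42) released into conditioned medium captured by ELISA after roughly 24 h compound exposure, vehicle and inhibitor controls defining maximal and minimal inhibition.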

Method: Cell-Based γ-Secretase Assay with ELISA Readout
The ability of compounds to modulate production of amyloid beta protein Aβ(1-42) was determined using human WT-APP overexpressing CHO cells. Cells were plated at 22,000 cells/100 μL well in 96 well tissue culture treated, clear plates (Falcon) in DMEM/F12 based medium and incubated for 24 hours at 37° C. […] Compounds were added in fresh medium to achieve 1% final DMSO. Appropriate vehicle and inhibitor controls were added to obtain maximum and minimum inhibition values for the assay before the plates were incubated for about 24 hours at 37° C.
Coating of ELISA assay plates was initiated by addition of 50 μL/well of an in house Aβ(1-42) specific antibody at (4 μg/mL) in 0.1 M NaHCO3 (pH 9.0) into black 384-well Maxisorp® plates (Nunc) and incubated overnight at 4° C. […] Ambient temperature incubation was allowed to proceed for a minimum of two hours before washing 2×100 μL with Wash Buffer (Dulbecco's PBS, 0.05% Tween 20). Assay Buffer (Dulbecco's PBS, 1.0% BSA (Sigma A7030), 0.05% Tween 20) 20 μL/well is then added.
After incubation overnight at 37° C., 5% CO2, 40 μL (in duplicate) of experimental conditioned media are transferred into wells of the blocked ELISA plates containing the capture antibody, followed by overnight incubation at 4° C.
After overnight incubation of the ELISA assay plates at 4° C., unbound Aβ peptides were removed thorough (4×100 μL) washes with Wash Buffer.

As to `COc1cc(C(=O)NCc2sc3c(F)ccc(F)c3c2Cl)ccc1-n1cnc(C)c1` [Example 58, N-[(3-chloro-4,7-difluoro-1-benzothien-2-yl)methyl]-3-methoxy-4-(4-methyl-1H-imidazol-1-yl) benzamide], under setting [1], the IC50 amounted to 346 nM.

Regarding `COc1cc(C(=O)NCCc2cccc(C(F)(F)F)c2)ccc1-n1cnc(C)c1` [Example 24, 3-methoxy-4-(4-methyl-1H-imidazol-1-yl)-N-{2-[3-(tri-fluoromethyl)phenyl]ethyl} benzamide], the IC50 under setting [1] was 438 nM.

As for `COc1cc(C(=O)NCC2COc3ccccc3C2)ccc1-n1cnc(C)c1` (centres unmarked) [Example 122, N-(3,4-dihydro-2H-chromen-3-ylmethyl)-3-methoxy-4-(4-methyl-1H-imidazol-1-yl)benzamide], the IC50 under setting [2] came out at 976 nM.

In the case of `COc1cc(C(=O)NC2COc3ccc(Cl)cc32)ccc1-n1cnc(C)c1` (single isomer, unassigned) [Example 128, N-(5-chloro-2,3-dihydro-1-benzofuran-3-yl)-3-methoxy-4-(4-methyl-1H-imidazol-1-yl)benzamide], the IC50 under setting [3] stood at 521 nM.

As for `COc1cc(C(=O)NCc2cccc(C(F)(F)F)c2F)ccc1-n1cnc(C)c1` [Example 77, N-[2-fluoro-3-(trifluoromethyl)benzyl]-3-methoxy-4-(4-methyl-1H-imidazol-1-yl) benzamide], under setting [1], the IC50 is 481 nM.

As for `COc1cc(C(=O)N2CC(Oc3cc(Cl)ccc3Cl)C2)ccc1-n1cnc(C)c1` [Example 108, 1-(4-{[3-(2,5-dichlorophenoxy)azetidin-1-yl]carbonyl}-2-methoxyphenyl)-4-methyl-1H-imidazole], the IC50 (Homo sapiens, CHO, read-out: Aβ 42 IC50, Single IC50 determination, human WT-APP overexpressing CHO cells) stood at 738 nM.

For the compound `COc1cc(C(=O)NCC2CCCC2)ccc1-n1cnc(C)c1` [Example 47, N-cyclopentyl-methyl-3-methoxy-4-(4-methyl-imidazol-1-yl)-benzamide], under setting [1], the concentration for half-maximal inhibition (IC50) amounted to 1200 nM.

On to `COc1cc(C(=O)NCCc2nc3cccc(Cl)c3o2)ccc1-n1cnc(C)c1` [Example 68, N-[2-(7-chloro-1,3-benzoxazol-2-yl)ethyl]-3-methoxy-4-(4-methyl-1H-imidazol-1-yl) benzamide], for which the IC50 under setting [1] worked out at 418 nM.

Turning to `COc1cc(C(=O)NCCc2cccc(C#N)c2)ccc1-n1cnc(C)c1` [Example 1, N-[2-(3-cyanophenyl)ethyl]-3-methoxy-4-(4-methyl-1H-imidazol-1-yl)benzamide], the IC50 under setting [4] turned out to be 2920 nM.

As for `COc1ccc(C2(CNC(=O)c3ccc(-n4cnc(C)c4)c(OC)c3)CCCC2)cc1` [Example 105, 3-methoxy-N-{[1-(4-methoxyphenyl)cyclopentyl]methyl}-4-(4-methyl-1H-imidazol-1-yl) benzamide], under setting [1], the IC50 came to 708 nM.

In the case of `COc1cc(C(=O)NCCc2nc3cc(C)ccc3o2)ccc1-n1cnc(C)c1` [Example 121, 3-methoxy-N-[2-(5-methyl-1,3-benzoxazol-2-yl)ethyl]-4-(4-methyl-1H-imidazol-1-yl) benzamide], the IC50 under setting [1] is 880 nM.

On to `CCc1cc(F)ccc1OCC1CN(C(=O)c2ccc(-n3cnc(C)c3)c(OC)c2)C1` [Example 138, 1-[4-({3-[(2-ethyl-4-fluorophenoxy)methyl]azetidin-1-yl}carbonyl)-2-methoxyphenyl]-4-methyl-1H-imidazole trifluoroacetate salt], for which the IC50 under setting [5] was determined as 537 nM.

As to “N-[2-(4-fluoro- phenyl)-1,1- dimethylethyl]- 3-methoxy-4- (4-methyl-1H- imidazol-1-yl) benzamide [Example 37]”, the half-maximal inhibitory concentration (IC50) under setting [1] was 519 nM.

For the compound `COc1cc(C(=O)N2CC[C@@H](Oc3ccccc3C(F)(F)F)C2)ccc1-n1cnc(C)c1` [Example 11, 1-[2-methoxy-4-({(3R)-3-[2-(trifluoromethyl)phenoxy]pyrrolidin-1-yl}carbonyl)phenyl]-4-methyl-1H-imidazole], the IC50 under setting [2] amounted to 96 nM.

As for `COc1cc(C(=O)NCc2csc(-c3ccc(Cl)cc3)n2)ccc1-n1cnc(C)c1` [Example 53, N-{[2-(4-chlorophenyl)-1,3-thiazol-4-yl]methyl}-3-methoxy-4-(4-methyl-1H-imidazol-1-yl) benzamide], the IC50 under setting [1] was 306 nM.

On to `COc1cc(C(=O)N2CC[C@H](Oc3ccccc3C(F)(F)F)C2)ccc1-n1cnc(C)c1` [Example 34, 1-[2-methoxy-4-({(3S)-3-[2-(trifluoro-methyl)phenoxy]pyrrolidin-1-yl}carbonyl)phenyl]-4-methyl-1H-imidazole, formic acid salt], for which the IC50 under setting [2] amounted to 297 nM.

In the case of `Cc1cn(-c2ccc(C(=O)NCCc3cccc(Cl)c3)cc2F)cn1` [Example 8, N-[2-(3-chlorophenyl)ethyl]-3-fluoro-4-(4-methyl-1H-imidazol-1-yl)benzamide], the IC50 under setting [4] stood at 960 nM.

On to `COc1cc(C(=O)N2CCC(Oc3ccccc3OC(F)(F)F)CC2)ccc1-n1cnc(C)c1` [Example 93, 1-[3-methoxy-4-(4-methyl-1H-imidazol-1-yl)benzoyl]-4-[2-(trifluoromethoxy)phenoxy]piperidine], for which, under setting [2], the IC50 is 602 nM.

For “1-[4-({3-[(chloro- 5-methylphenoxy) methyl]azetidin- 1-yl}carbonyl)-2- methoxyphenyl]- 4-methyl-1H- imidazole trifluoroacetate salt [Example 139]”, the IC50 (read-out: Aβ 42 IC50, Geometric mean of at least 2 determinations, human WT-APP overexpressing CHO cells) was 557 nM.

Take `COc1cc(C(=O)NCCc2c(C)[nH]c3ccc(C)cc23)ccc1-n1cnc(C)c1` [Example 73, N-[2-(2,5-dimethyl-1H-indol-3-yl)ethyl]-3-methoxy-4-(4-methyl-1H-imidazol-1-yl)benzamide]: under setting [3], the IC50 was found to be 444 nM.

`COc1cc(C(=O)NCC(c2ccc(C(F)(F)F)cc2)N2CCOCC2)ccc1-n1cnc(C)c1` (centres unmarked) [Example 111, 3-methoxy-4-(4-methyl-1H-imidazol-1-yl)-N-{2-morpholin-4-yl-2-[4-(trifluoromethyl)phenyl]ethyl}benzamide]: the IC50 under setting [2] came out at 756 nM.

On to `COc1cc(C(=O)N[C@@H](C)c2ccc(C)cc2)ccc1-n1cnc(C)c1` [Example 110, 3-methoxy-4-(4-methyl-1H-imidazol-1-yl)-N-[(1S)-1-(4-methylphenyl)ethyl) benzamide], for which, under “read-out: Aβ 42 IC50”, the 50% inhibitory concentration (IC50) amounted to 747 nM.

On to `COc1cc(C(=O)NCCc2c[nH]c3ccc(Br)cc23)ccc1-n1cnc(C)c1` [Example 52, N-[2-(5-bromo-1H-indol-3-yl)ethyl]-3-methoxy-4-(4-methyl-1H-imidazol-1-yl) benzamide], for which, under setting [1], the IC50 amounted to 251 nM.

Consider `COc1cc(C(=O)NCc2csc(-c3cccs3)n2)ccc1-n1cnc(C)c1` [Example 44, 3-methoxy-4-(4-methyl-1H-imidazol-1-yl)-N-{[2-(2-thienyl)-1,3-thiazol-4-yl]methyl} benzamide], for which the IC50 under setting [1] was determined as 575 nM.

With `COc1cc(C(=O)NC(CCC(C)C)c2ccc(C(F)(F)F)cc2)ccc1-n1cnc(C)c1` (centres unmarked) [Example 29, 3-methoxy-4-(4-methyl-1H-imidazol-1-yl)-N-{4-methyl-1-[4-(trifluoro-methyl)phenyl]pentyl} benzamide], under setting [1], the IC50 was found to be 861 nM.

On to `COc1cc(C(=O)NCCc2c(C)[nH]c3ccccc23)ccc1-n1cnc(C)c1` [Example 117, 3-methoxy-4-(4-methyl-1H-imidazol-1-yl)-N-[2-(2-methyl-1H-indol-3-yl)ethyl] benzamide], for which the IC50 under setting [1] stood at 828 nM.

As for `COc1cc(C(=O)N2CC(COc3ccccc3C(F)(F)F)C2)ccc1-n1cnc(C)c1` [Example 131, 1-{2-methoxy-4-[(3-{[2-(trifluoro-methyl)phenoxy]methyl}azetidin-1-yl)carbonyl]phenyl}-4-methyl-1H-imidazole], the IC50 under setting [2] was found to be 311 nM.

Consider `COc1cc(C(=O)NCc2cc3ccccc3s2)ccc1-n1cnc(C)c1` [Example 87, N-(1-benzothien-2-ylmethyl)-3-methoxy-4-(4-methyl-1H-imidazol-1-yl) benzamide], for which, under setting [1], the IC50 was 560 nM.

Turning to `COc1ccc(OC)c(C2CCN(C(=O)c3ccc(-n4cnc(C)c4)c(OC)c3)C2)c1` (centres unmarked) [Example 109, 1-(4-{[3-(2,5-dimethoxyphenyl)pyrrolidin-1-yl]carbonyl}-2-methoxyphenyl)-4-methyl-1H-imidazole], the IC50 under setting [2] came to 739 nM.

`COc1cc(C(=O)NC2COc3c(F)cc(Cl)cc32)ccc1-n1cnc(C)c1` (single isomer, unassigned) [Example 127, N-(5-chloro-7-fluoro-2,3-dihydro-1-benzofuran-3-yl)-3-methoxy-4-(4-methyl-1H-imidazol-1-yl)benzamide trifluoroacetate salt]: the IC50 under setting [2] was 521 nM.

For the compound `COc1cc(C(=O)NCc2ccc(F)c(Cl)c2)ccc1-n1cnc(C)c1` [Example 54, N-(3-chloro-4-fluorobenzyl)-3-methoxy-4-(4-methyl-1H-imidazol-1-yl)benzamide], the IC50 under setting [2] was determined as 326 nM.

Take `COc1cc(C(=O)NCc2cccc(C(=O)c3ccccc3)c2)ccc1-n1cnc(C)c1` [Example 42, N-(3-benzoyl-benzyl)-3-methoxy-4-(4-methyl-1H-imidazol-1-yl) benzamide]: under setting [1], the IC50 is 316 nM.

On to `COc1cc(C(=O)NCc2cc3cc(F)ccc3[nH]2)ccc1-n1cnc(C)c1` [Example 89, N-[(5-fluoro-1H-indol-2-yl)methyl]-3-methoxy-4-(4-methyl-1H-imidazol-1-yl)benzamide], for which the IC50 under setting [2] was 570 nM.

Take `COc1cc(C(=O)NCc2cc3cc(Cl)ccc3[nH]2)ccc1-n1cnc(C)c1` [Example 15, N-[(5-chloro-1H-indol-2-yl)methyl]-3-methoxy-4-(4-methyl-1H-imidazol-1-yl)benzamide]: the IC50 under setting [2] came to 547 nM.

As to `CCc1ccccc1OCC1CN(C(=O)c2ccc(-n3cnc(C)c3)c(OC)c2)C1` [Example 140, 1-[4-({3-[(2-ethylphenoxy)methyl]azetidin-1-yl}carbonyl)-2-methoxyphenyl]-4-methyl-1H-imidazole trifluoroacetate salt], under setting [5], the IC50 came to 593 nM.
